Measurements from paper PMC10970923, “In Vitro Evaluation of Essential Oils and Saturated Fatty Acids for Repellency against the Old-World Sand Fly, Phlebotomus papatasi (Scopoli) (Diptera: Psychodidae)” (Insects, 2024).
Like-named read-outs stand apart in the source and are kept apart here.

Biological target: T1, rPpAChE1 (recombinant acetylcholinesterase of P. papatasi) (Phlebotomus papatasi, UniProt M1F887)
T1 construct: gene AChE
Assay: residual AChE activity from initial velocities
Assay type: biochemical
Source text: residual AChE activity from initial velocities on rPpAChE1 (recombinant acetylcholinesterase of P. papatasi)

T1 sequence (M1F887 41-710): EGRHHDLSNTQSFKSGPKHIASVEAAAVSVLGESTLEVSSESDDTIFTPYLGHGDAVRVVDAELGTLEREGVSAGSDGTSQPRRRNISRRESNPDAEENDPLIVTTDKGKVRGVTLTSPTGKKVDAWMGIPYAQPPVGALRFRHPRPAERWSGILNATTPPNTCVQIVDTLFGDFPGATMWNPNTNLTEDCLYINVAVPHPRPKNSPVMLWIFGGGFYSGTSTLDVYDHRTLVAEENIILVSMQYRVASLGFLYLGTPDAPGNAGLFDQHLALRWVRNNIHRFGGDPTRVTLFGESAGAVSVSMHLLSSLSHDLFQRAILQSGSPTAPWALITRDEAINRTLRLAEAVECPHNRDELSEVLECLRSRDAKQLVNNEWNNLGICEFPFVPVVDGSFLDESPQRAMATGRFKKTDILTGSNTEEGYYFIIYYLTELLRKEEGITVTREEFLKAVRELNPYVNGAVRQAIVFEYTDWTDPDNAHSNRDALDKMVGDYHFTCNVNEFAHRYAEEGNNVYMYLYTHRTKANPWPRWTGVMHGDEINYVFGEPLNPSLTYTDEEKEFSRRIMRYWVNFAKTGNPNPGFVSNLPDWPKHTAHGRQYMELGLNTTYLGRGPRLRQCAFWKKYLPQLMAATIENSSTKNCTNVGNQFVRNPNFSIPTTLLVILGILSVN

CCN(CC)C(=O)c1cccc(C)c1 [DEET, N,N-diethyl-m-toluamide]
remaining activity at 1000 µM (read-out: % Residual rPpAChE1 Activity (Compared to No Inhibitor) ± Std. Dev. ^* / DEET): 93.2 ± 1.4%

CCCCN(CCC(=O)OCC)C(C)=O [IR3535]
remaining activity at 1000 µM (read-out: % Residual rPpAChE1 Activity (Compared to No Inhibitor) ± Std. Dev. ^* / IR3535): 104 ± 5%

CCCCCCCCC(=O)O [Nonanoic acid]
remaining activity at 1000 µM (read-out: % Residual rPpAChE1 Activity (Compared to No Inhibitor) ± Std. Dev. ^* / Nonanoic Acid): 96 ± 2.3%

CCCCCCCCCCC(=O)O [Undecanoic acid]
remaining activity at 1000 µM (read-out: % Residual rPpAChE1 Activity (Compared to No Inhibitor) ± Std. Dev. ^* / Undecanoic Acid): 98.2 ± 0.4%
